Measurements published in patent US12391692B2, “Spiro ring-containing quinazoline compound” (WIGEN BIOMEDICINE TECHNOLOGY (SHANGHAI) CO., LTD., priority 2020, dated 2025).

Legend:
[1] = system: pERK level in H358 cells; assay: pERK and ERK protein content assay in H358 cells (ELISA); assay type: cell-based; details: Homo sapiens, NCI-H358, pERK/ERK ratio vs DMSO group, compound 1 μM, 24 h, read-out: Inhibition rate (%)
Protocol: H358 cells were seeded in a 24-well plate. After one day of growth, a test compound (at a concentration of 1 μM) was added. After 24 h of action of the compound, the cells were lysed, and the cell lysate was transferred to a 96-well ELISA plate. The levels of pERK and ERK in the lysate were measured using an ELISA kit (abcam 176660). The ratio of pERK to ERK was calculated and compared with that of the DMSO group, and the percentage of inhibition of pERK activity by the compound was calculated.

[2] = system: H358 cells; assay: Antiproliferative activity against H358 cells (Cell Titer Glow, ultra-low attachment plate); assay type: cell-based; details: Homo sapiens, NCI-H358, 72 h, three days after addition of compound
Protocol: 2500 H358 cells were seeded in a 96-well ultra-low attachment plate (corning, 7007). After one day of growth, a serially diluted compound (a maximum concentration of 5 μM, 5-fold dilution, a total of five doses) was added. Three days after the addition of the compound, Cell Titer Glow (Promega, G9681) was added to evaluate pellet growth, and the IC50 value was calculated.

IC50 [2]	SMILES	inhibition at 1 µM [1]
< 300 nM	C=CC(=O)N1CC2(CCN(c3nc(N4CC(OCC5COC5)C4)nc4c(OCC(F)(F)F)c(-c5c(C)ccc6[nH]ncc56)c(C5CC5)cc34)CC2)C1 [Compound 18]	> 90%
300 to 1000 nM	C=CC(=O)N1CC2(CCN(c3nc(N4CC(n5ccnc5)C4)nc4c(OCC(F)(F)F)c(-c5c(C)ccc6[nH]ncc56)c(C5CC5)cc34)CC2)C1 [Compound 41]	50 to 90%
300 to 1000 nM	C=CC(=O)N1CC2(CCN(c3nc(N4CC5(CC5)C4)nc4c(OCC(F)(F)F)c(-c5c(C)ccc6[nH]ncc56)c(C5CC5)cc34)CC2)C1 [Compound 65]	50 to 90%
< 300 nM	C=CC(=O)N1CC2(CCN(c3nc(N4CC(CN(C)CCO)C4)nc4c(OCC(F)(F)F)c(-c5c(C)ccc6[nH]ncc56)c(C5CC5)cc34)CC2)C1 [Compound 4]	> 90%
< 300 nM	C=CC(=O)N1CCC2(CC1)CN(c1nc(N3CC(N4CCC5(CC5)C4)C3)nc3c(OCC(F)(F)F)c(-c4c(C)ccc5[nH]ncc45)c(C4CC4)cc13)C2 [Compound 115]	> 90%
< 300 nM	C=CC(=O)N1CC2(CCN(c3nc(N4CC(N5CC6(CC6)C5)C4)nc4c(OCC(F)(F)F)c(-c5c(C)ccc6cn[nH]c56)c(C5CC5)cc34)CC2)C1 [Compound 109]	> 90%
> 1000 nM	C=CC(=O)N1CC2(CCN(c3nc(N4CC(N5CC=CCC5)C4)nc4c(OCC(F)(F)F)c(-c5c(C)ccc6[nH]ncc56)c(C5CC5)cc34)CC2)C1 [Compound 43]	50 to 90%
< 300 nM	C=CC(=O)N1CC2(CCN(c3nc(N4CC(OC5CCN(C)CC5)C4)nc4c(OCC(F)(F)F)c(-c5c(C)ccc6[nH]ncc56)c(C5CC5)cc34)CC2)C1 [Compound 15]	> 90%
< 300 nM	C=CC(=O)N1CC2(CCN(c3nc(N4CC(OC5CC5)C4)nc4c(OCC(F)(F)F)c(-c5c(C)ccc6[nH]ncc56)c(C5CC5)cc34)CC2)C1 [Compound 12]	> 90%
300 to 1000 nM	C=CC(=O)N1CC2(CCN(c3nc(N4CC(N5CCSCC5)C4)nc4c(OCC(F)(F)F)c(-c5c(C)ccc6[nH]ncc56)c(C5CC5)cc34)CC2)C1 [Compound 25]	> 90%
< 300 nM	C=CC(=O)N1CC2(CCN(c3nc(N4CC5(C=CCN5C)C4)nc4c(OCC(F)(F)F)c(-c5c(C)ccc6[nH]ncc56)c(C5CC5)cc34)CC2)C1 [Compound 127]	> 90%
< 300 nM	C=CC(=O)N1CCC2(CC1)CN(c1nc(N3CC(N4CC5(CC5)C4)C3)nc3c(OCC(F)(F)F)c(-c4c(C)ccc5[nH]ncc45)c(C4CC4)cc13)C2 [Compound 102]	> 90%
< 300 nM	C=CC(=O)N1CC2(CCN(c3nc(N4CC(N5CC[C@H](O)C5)C4)nc4c(OCC(F)(F)F)c(-c5c(C)ccc6[nH]ncc56)c(C5CC5)cc34)CC2)C1 [Compound 45]	> 90%
300 to 1000 nM	C=CC(=O)N1CC2(CCN(c3nc(O[C@H]4C[C@H](N5CCC5)C4)nc4c(OCC(F)(F)F)c(-c5c(C)ccc6[nH]ncc56)c(C5CC5)cc34)CC2)C1 [Compound 88]	50 to 90%
300 to 1000 nM	C=CC(=O)N1CC2(CCN(c3nc(N4CC(N5CCS(=O)(=O)CC5)C4)nc4c(OCC(F)(F)F)c(-c5c(C)ccc6[nH]ncc56)c(C5CC5)cc34)CC2)C1 [Compound 27]	50 to 90%
< 300 nM	C=CC(=O)N1CC2(CCN(c3nc(N4CC5(CCN5C)C4)nc4c(OCC(F)(F)F)c(-c5c(C)ccc6[nH]ncc56)c(C5CC5)cc34)CC2)C1 [Compound 67]	> 90%
< 300 nM	C=CC(=O)N1CC2(CCN(c3nc(N4CC(OCC5CN(C)C5)C4)nc4c(OCC(F)(F)F)c(-c5c(C)ccc6[nH]ncc56)c(C5CC5)cc34)CC2)C1 [Compound 19]	> 90%
< 300 nM	C=CC(=O)N1CC2(CCN(c3nc(N4CC(N5CCC6(CC6)C5)C4)nc4c(OCC(F)(F)F)c(-c5c(C)ccc6[nH]ncc56)c(C5CC5)cc34)CC2)C1 [Compound 35]	> 90%
< 300 nM	C=CC(=O)N1CC2(CCN(c3nc(N4CC(CN(C)C)C4)nc4c(OCC(F)(F)F)c(-c5c(C)ccc6[nH]ncc56)c(C5CC5)cc34)CC2)C1 [Compound 1, 1-(7-(6-cyclopropyl-2-(3-((dimethylamino)methyl)azetidin-1-yl)-7-(5-methyl-1H-indazol-4-yl)-8-(2,2,2-trifluoroethoxy)quinazolin-4-yl)-2,7-diazaspiro[3.5]non-2-yl)prop-2-en-1-one]	> 90%
300 to 1000 nM	C=CC(=O)N1CC2(CCN(c3nc(N4CCC(N5CC6(CC6)C5)CC4)nc4c(OCC(F)(F)F)c(-c5c(C)ccc6[nH]ncc56)c(C5CC5)cc34)CC2)C1 [Compound 38]	> 90%
< 300 nM	C=CC(=O)N1CC2(CCN(c3nc(N4CC(O)C4)nc4c(OCC(F)(F)F)c(-c5c(C)ccc6[nH]ncc56)c(C5CC5)cc34)CC2)C1 [Compound 2]	> 90%
< 300 nM	C=CC(=O)N1CC2(CCN(c3nc(N4CCC5(CCN5C)C4)nc4c(OCC(F)(F)F)c(-c5c(C)ccc6[nH]ncc56)c(C5CC5)cc34)CC2)C1 (centres unmarked) [Compound 77]	> 90%

Second part, the compound before the results:

SMILES	IC50 [2]	inhibition at 1 µM [1]
C=CC(=O)N1CC2(CCN(c3nc(N4CC5(CCCN5CC)C4)nc4c(OCC(F)(F)F)c(-c5c(C)ccc6[nH]ncc56)c(C=C)cc34)CC2)C1 [Compound 132]	< 300 nM	> 90%
C=CC(=O)N1CC2(CCN(c3nc(N4CC5(CN(CCOC)CCO5)C4)nc4c(OCC(F)(F)F)c(-c5c(C)ccc6[nH]ncc56)c(C5CC5)cc34)CC2)C1 [Compound 82]	< 300 nM	> 90%
C=CC(=O)N1CC2(CCN(c3nc(O[C@H]4C[C@H](N5CCC(F)(F)C5)C4)nc4c(OCC(F)(F)F)c(-c5c(C)ccc6[nH]ncc56)c(C5CC5)cc34)CC2)C1 [Compound 92]	> 1000 nM	50 to 90%
C=CC(=O)N1CC2(CCN(c3nc(O[C@H]4C[C@@H](N5CCC5)C4)nc4c(OCC(F)(F)F)c(-c5c(C)ccc6[nH]ncc56)c(C5CC5)cc34)CC2)C1 [Compound 87]	< 300 nM	> 90%
C=CC(=O)N1CC2(CCN(c3nc(N4CC(N5CC6(CC6)C5)C4)nc4c(OCC(F)(F)F)c(-c5c(O)cccc5F)c(C5CC5)cc34)CC2)C1 [Compound 112]	< 300 nM	> 90%
C=CC(=O)N1CC2(CCN(c3nc(O[C@H]4C[C@@H](N5CCCC5)C4)nc4c(OCC(F)(F)F)c(-c5c(C)ccc6[nH]ncc56)c(C5CC5)cc34)CC2)C1 [Compound 89]	< 300 nM	> 90%
C=CC(=O)N1CC2(CCN(c3nc(N4CC(N5CCC6(CC6)C5)C4)nc4c(OCC(F)(F)F)c(-c5c(C)ccc6[nH]ncc56)c(CC)cc34)CC2)C1 [Compound 114]	< 300 nM	> 90%
C=CC(=O)N1CC2(CCN(c3nc(N4CC5(CC(=C)CN5CC)C4)nc4c(OCC(F)(F)F)c(-c5c(C)ccc6[nH]ncc56)c(C5CC5)cc34)CC2)C1 [Compound 126]	< 300 nM	> 90%
C=CC(=O)N1CC2(CCN(c3nc(O[C@H]4C[C@H](N5CCCC5)C4)nc4c(OCC(F)(F)F)c(-c5c(C)ccc6[nH]ncc56)c(C5CC5)cc34)CC2)C1 [Compound 90]	300 to 1000 nM	50 to 90%
C=CC(=O)N1CC2(CCN(c3nc(O[C@H]4C[C@@H](N5CC6(CCC6)C5)C4)nc4c(OCC(F)(F)F)c(-c5c(C)ccc6[nH]ncc56)c(C5CC5)cc34)CC2)C1 [Compound 95]	< 300 nM	> 90%
C=CC(=O)N1CC2(CCN(c3nc(N4CC(CC#N)(n5ccnc5)C4)nc4c(OCC(F)(F)F)c(-c5c(C)ccc6[nH]ncc56)c(C5CC5)cc34)CC2)C1 [Compound 57]	300 to 1000 nM	50 to 90%
C=CC(=O)N1CC2(CCN(c3nc(O[C@H]4C[C@H](N(C)C)C4)nc4c(OCC(F)(F)F)c(-c5c(C)ccc6[nH]ncc56)c(C5CC5)cc34)CC2)C1 [Compound 86]	300 to 1000 nM	50 to 90%
C=CC(=O)N1CC2(CCN(c3nc(N4CCC5(CCCN5CCOC)CC4)nc4c(OCC(F)(F)F)c(-c5c(C)ccc6[nH]ncc56)c(C5CC5)cc34)CC2)C1 [Compound 80]	300 to 1000 nM	50 to 90%
C=CC(=O)N1CC2(CCN(c3nc(N4CC(CC#N)(N5CCOCC5)C4)nc4c(OCC(F)(F)F)c(-c5c(C)ccc6[nH]ncc56)c(C5CC5)cc34)CC2)C1 [Compound 56]	< 300 nM	> 90%
C=CC(=O)N1CC2(CCN(c3nc(N4CC(CC#N)(N(C)CCO)C4)nc4c(OCC(F)(F)F)c(-c5c(C)ccc6[nH]ncc56)c(C5CC5)cc34)CC2)C1 [Compound 52]	< 300 nM	> 90%
C=CC(=O)N1CC2(CCN(c3nc(N4CC(N5CC6(CC6)C5)C4)nc4c(OCC(F)F)c(-c5c(C)ccc6[nH]ncc56)c(C5CC5)cc34)CC2)C1 [Compound 98]	< 300 nM	> 90%
C=CC(=O)N1CC2(CCN(c3nc(N4CC(CC#N)(N(C)C)C4)nc4c(OCC(F)(F)F)c(-c5c(C)ccc6[nH]ncc56)c(C5CC5)cc34)CC2)C1 [Compound 51]	< 300 nM	> 90%
C=CC(=O)N1CC2(CCN(c3nc(N4CC(CC#N)(N5CCC5)C4)nc4c(OCC(F)(F)F)c(-c5c(C)ccc6[nH]ncc56)c(C5CC5)cc34)CC2)C1 [Compound 54]	< 300 nM	> 90%
